These results are taken from US9266869B2, “Substituted dialkyl(oxido)-lambda4-sulfanylidene nicotinamide derivatives as kinase inhibitors” (Allergan, Inc., priority 2013, dated 2016).

The target of assay [1] is T1, PDGFRβ (Homo sapiens (Human), UniProt P09619). Nature of the assay: PDGFRβ Kinase Assay. To be noted: purified cytoplasmic domain PDGFR-b protein, 36 μM ATP; read-out: PDGFRβ Enzyme Assay (IC50 nM). The format is biochemical. The method, then:
Biochemical PDGFRβ kinase assays were performed in 96 well microtiter plates that were coated overnight with 75 μg of poly-Glu-Tyr (4:1) in 10 mM Phosphate Buffered Saline (PBS), pH 7.4.
(§1) PBS-T prior to starting the reaction. Reactions were carried out in 100 μL reaction volumes containing 36 μM ATP in kinase buffer (50 mM Hepes buffer pH 7.4, 20 mM MgCl2, 0.1 mM MnCl2 and 0.2 mM Na3VO4). […] Reactions were initiated by the addition 20 ul per well of kinase buffer containing 200-300 ng purified cytoplasmic domain PDGFR-b protein (Millipore). Following a 60 minute incubation at 30° C., the reactions were washed 2 mls per well PBS-T. 100 μl of a monoclonal anti-phosphotyrosine antibody-peroxidase conjugate diluted 1:10,000 in PBS-T was added to the wells for 30 minutes. Following a 2 mls per well wash with PBS-Tween-20, 100 μl of O-Phenylenediamine Dihydrochloride in phosphate-citrate buffer, containing urea hydrogen peroxide, was added to the wells for 7-10 minutes as a colorimetric substrate for the peroxidase. […] IC50 values for compound inhibition were calculated directly from graphs of optical density (arbitrary units) versus compound concentration following subtraction of blank values.
Target sequence in this assay (P09619 554-1106): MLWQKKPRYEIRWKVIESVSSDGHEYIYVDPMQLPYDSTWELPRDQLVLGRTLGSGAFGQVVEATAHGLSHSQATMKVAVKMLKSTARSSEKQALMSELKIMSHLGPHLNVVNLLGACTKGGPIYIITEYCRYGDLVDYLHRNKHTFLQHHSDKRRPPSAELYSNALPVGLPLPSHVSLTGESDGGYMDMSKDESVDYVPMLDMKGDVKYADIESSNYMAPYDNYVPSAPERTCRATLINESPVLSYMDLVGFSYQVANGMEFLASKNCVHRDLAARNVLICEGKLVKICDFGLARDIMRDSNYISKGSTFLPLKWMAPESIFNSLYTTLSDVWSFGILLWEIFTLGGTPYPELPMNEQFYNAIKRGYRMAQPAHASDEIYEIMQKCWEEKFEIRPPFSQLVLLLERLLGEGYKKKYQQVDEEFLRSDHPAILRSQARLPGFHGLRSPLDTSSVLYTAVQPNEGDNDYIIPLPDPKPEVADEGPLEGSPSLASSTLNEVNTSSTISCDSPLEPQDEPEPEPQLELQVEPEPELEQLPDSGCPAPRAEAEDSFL

Assay [2] deals with VEGFR2 (KDR) (Homo sapiens (Human), UniProt P35968). Nature of the assay: VEGFR2 Kinase Assay. In kind it is biochemical. Particulars: purified cytoplasmic domain KDR protein, 2.7 μM ATP; read-out: VEGFR2 Enzyme Assay (IC50 nM). The method, then: as §1, with “VEGFR2 Kinase Assay Biochemical KDR kinase assays were performed in 96 well microtiter plates that were coated overnight with 75 μg/well of poly-Glu-[…]:1) in 10 mM Phosphate Buffered Saline (PBS), pH 7.4. […]” for “PBS-T prior to starting the reaction.”, “2.7” for “36”, “KDR” for “PDGFR-b”, “(BPS Bioscience, San Diego, Calif.).” for “(Millipore).”, “15” for “60”, “0-Phenylenediamine” for “O-Phenylenediamine”
VEGFR2 (KDR), sequence (P35968 786-1356): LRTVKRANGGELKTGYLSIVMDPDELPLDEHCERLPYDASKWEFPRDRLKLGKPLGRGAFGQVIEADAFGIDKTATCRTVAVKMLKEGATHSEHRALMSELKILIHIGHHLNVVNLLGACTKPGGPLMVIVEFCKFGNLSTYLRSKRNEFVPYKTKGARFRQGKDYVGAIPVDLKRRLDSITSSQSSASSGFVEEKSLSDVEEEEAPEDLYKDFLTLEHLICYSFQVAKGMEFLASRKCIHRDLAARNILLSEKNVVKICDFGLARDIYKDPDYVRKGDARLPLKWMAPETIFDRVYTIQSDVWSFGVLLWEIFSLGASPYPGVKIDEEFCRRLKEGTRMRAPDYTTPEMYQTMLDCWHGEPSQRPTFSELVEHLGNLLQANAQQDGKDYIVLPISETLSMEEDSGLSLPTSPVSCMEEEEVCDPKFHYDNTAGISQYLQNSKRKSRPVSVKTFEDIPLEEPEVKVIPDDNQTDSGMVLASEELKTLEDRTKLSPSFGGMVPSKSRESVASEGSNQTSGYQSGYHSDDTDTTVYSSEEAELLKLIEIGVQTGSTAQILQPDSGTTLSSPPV

The target in assay [3] is VEGFR2 (Homo sapiens (Human), UniProt P35968). The experiment in a line: VEGFR2 Cellular Assay (VEGF induced intracellular calcium, FLIPR, HUVEC). To be noted: VEGF165 stimulation (10 ng/mL). In kind it is cell-based. The method, then:
(§2) VEGFR2 Cellular Assay Automated FLIPR (Fluorometric Imaging Plate Reader) technology was used to screen for inhibitors of VEGF induced increases in intracellular calcium levels in fluorescent dye loaded endothelial cells. HUVEC (human umbilical vein endothelial cells) (Clonetics) were seeded in 384-well fibronectin coated black-walled plates overnight @ 37° C./5% CO2. Cells were loaded with calcium indicator Fluo-4 for 45 minutes at 37° C. Cells were washed 2 times (Elx405, Biotek Instruments) to remove extracellular dye. For screening, cells were pre-incubated with test agents for 30 minutes, at a single concentration (10 uM) or at concentrations ranging from 0.0001 to 10.0 uM followed by VEGF165 stimulation (10 ng/mL). Changes in fluorescence at 516 nm were measured simultaneously in all 384 wells using a cooled CCD camera. Data were generated by determining max-min fluorescence levels for unstimulated, stimulated, and drug treated samples. IC50 values for test compounds were calculated from % inhibition of VEGF stimulated responses in the absence of inhibitor.
In general terms: A change in cytosolic calcium serves as a functional read-out for many receptors and channels.

The target of assay [4] is T1, PDGFRβ. Nature of the assay: PDGFRβ Cellular Assay (PDGF-induced intracellular calcium, FLIPR, NHDF-Ad). Particulars: PDGF-BB stimulation (30 ng/mL). In kind it is cell-based. The method, then:
as §2, with “Automated” for “VEGFR2 Cellular Assay Automated”, “of PDGF-induced” for “of VEGF induced”, “[…]. NHDF-Ad (Normal Human Dermal Fibroblasts, Adult; Lonza)” for “cells. HUVEC (human umbilical vein endothelial cells) (Clonetics)”, “by PDGF-BB” for “by VEGF165”, “stimulation (30” for “stimulation (10”, “of PDGF-BB” for “of VEGF”
Target sequence in this assay (P09619 33-1106): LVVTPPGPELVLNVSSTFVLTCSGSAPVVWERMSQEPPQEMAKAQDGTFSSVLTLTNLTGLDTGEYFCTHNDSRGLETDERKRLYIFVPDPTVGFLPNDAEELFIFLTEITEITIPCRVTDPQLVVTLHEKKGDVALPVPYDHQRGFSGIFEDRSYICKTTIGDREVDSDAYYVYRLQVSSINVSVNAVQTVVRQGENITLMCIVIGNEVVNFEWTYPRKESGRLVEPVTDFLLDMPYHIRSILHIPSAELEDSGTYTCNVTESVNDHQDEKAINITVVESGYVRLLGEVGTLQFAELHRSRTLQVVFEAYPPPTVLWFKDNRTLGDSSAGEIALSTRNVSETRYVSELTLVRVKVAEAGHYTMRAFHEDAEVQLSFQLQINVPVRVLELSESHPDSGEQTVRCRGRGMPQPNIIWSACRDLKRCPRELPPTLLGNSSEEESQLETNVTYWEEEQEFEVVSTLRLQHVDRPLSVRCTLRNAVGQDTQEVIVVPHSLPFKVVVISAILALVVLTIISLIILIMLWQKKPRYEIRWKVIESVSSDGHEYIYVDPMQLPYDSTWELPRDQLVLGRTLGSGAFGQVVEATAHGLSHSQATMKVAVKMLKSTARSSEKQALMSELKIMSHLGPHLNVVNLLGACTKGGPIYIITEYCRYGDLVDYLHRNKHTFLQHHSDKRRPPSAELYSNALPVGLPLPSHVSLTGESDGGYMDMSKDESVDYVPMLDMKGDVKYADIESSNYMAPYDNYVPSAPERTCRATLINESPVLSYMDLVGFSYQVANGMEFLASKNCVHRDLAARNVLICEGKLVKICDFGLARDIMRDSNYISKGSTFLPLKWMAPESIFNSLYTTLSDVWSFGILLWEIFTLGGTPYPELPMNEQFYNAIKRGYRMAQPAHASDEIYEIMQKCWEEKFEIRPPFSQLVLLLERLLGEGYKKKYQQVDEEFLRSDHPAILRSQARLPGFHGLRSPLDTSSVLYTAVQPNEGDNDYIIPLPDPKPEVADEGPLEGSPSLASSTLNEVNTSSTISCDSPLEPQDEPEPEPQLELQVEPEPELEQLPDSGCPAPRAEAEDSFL

VEGFR2, sequence (P35968 20-1356): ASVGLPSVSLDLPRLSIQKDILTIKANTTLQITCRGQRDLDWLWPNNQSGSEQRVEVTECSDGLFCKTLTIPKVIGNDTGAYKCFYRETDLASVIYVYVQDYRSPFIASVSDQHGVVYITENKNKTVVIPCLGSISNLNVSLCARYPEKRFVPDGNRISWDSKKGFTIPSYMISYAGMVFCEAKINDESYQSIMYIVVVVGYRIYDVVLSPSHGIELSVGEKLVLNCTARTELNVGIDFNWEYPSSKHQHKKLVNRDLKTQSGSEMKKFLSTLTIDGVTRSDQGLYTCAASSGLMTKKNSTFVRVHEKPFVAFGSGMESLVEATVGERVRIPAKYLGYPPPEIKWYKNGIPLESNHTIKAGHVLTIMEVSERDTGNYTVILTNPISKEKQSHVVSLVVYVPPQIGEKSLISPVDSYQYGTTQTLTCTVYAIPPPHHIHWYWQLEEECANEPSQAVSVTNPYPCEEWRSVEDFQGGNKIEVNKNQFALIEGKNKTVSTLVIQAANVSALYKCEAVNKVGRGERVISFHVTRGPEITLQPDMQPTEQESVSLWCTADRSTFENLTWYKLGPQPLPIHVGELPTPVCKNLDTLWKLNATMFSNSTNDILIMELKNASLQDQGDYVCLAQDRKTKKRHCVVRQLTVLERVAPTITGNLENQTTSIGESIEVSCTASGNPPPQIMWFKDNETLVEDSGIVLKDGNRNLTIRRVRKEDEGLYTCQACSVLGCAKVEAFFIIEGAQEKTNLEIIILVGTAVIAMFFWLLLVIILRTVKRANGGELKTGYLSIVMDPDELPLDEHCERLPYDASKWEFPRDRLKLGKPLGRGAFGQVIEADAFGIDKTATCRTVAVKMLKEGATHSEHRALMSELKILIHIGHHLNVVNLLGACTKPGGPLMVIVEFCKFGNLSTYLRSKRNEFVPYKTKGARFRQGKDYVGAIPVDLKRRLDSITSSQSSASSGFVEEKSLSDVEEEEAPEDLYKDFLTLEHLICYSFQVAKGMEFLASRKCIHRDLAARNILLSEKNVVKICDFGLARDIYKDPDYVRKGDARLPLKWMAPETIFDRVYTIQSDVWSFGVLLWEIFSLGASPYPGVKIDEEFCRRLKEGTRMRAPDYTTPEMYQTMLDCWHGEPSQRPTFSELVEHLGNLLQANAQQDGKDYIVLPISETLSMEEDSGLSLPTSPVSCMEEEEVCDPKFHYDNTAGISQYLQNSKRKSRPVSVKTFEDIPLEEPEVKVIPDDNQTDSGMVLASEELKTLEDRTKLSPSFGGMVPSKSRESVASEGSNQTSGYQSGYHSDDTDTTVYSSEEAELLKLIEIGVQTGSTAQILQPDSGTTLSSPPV

By IC50 is commonly meant the midpoint of a concentration-inhibition curve. On to “6-Amino-N-[(3-hydroxypropyl)(methyl)oxido-λ^4-sulfanylidene]-5-({3-[(3-methyl-2-furoyl)amino]phenyl}ethynyl)nicotinamide [Example 42]”, for which the IC50 in assay [1] is 13 nM; in assay [2], 5 nM.
On to `CS(C)(=O)=NC(=O)c1cnc(N)c(C#Cc2cccc(NC(=O)c3ccc(Cl)cc3)c2)c1` [Example 5, 6-Amino-5-({3-[(4-chlorobenzoyl)amino]phenyl}ethynyl)-N-[dimethyl(oxido)-λ^4-sulfanylidene]nicotinamide], for which the IC50 in assay [1] worked out at 22 nM; in assay [3] it was 9 nM; in assay [2], 2 nM.
With `Cn1ccnc1C(=O)Nc1cccc(C#Cc2cc(C(=O)N=S(C)(C)=O)cnc2N)c1` [Example 7, 6-Amino-N-[dimethyl(oxido)-λ^4-sulfanylidene]-5-[(3-{[(1-methyl-1H-imidazol-2-yl)carbonyl]amino}phenyl)ethynyl]nicotinamide], the IC50 in assay [3] came out at 51 nM; in assay [2] it was 6 nM.
In the case of `CS(C)(=O)=NC(=O)c1cncc(C#Cc2cccc(NC(=O)Nc3ccccc3F)c2)c1` [Example 9, N-[Dimethyl(oxido)-λ^4-sulfanylidene]-5-{[3-({[(2-fluorophenyl)amino]carbonyl}amino)phenyl]ethynyl}nicotinamide], the IC50 in assay [3] stood at 48 nM; in assay [2], 8 nM.
Regarding `Cc1cccc(NC(=O)Nc2cccc(C#Cc3cncc(C(=O)N=S(C)(C)=O)c3)c2)c1` [Example 10, N-[Dimethyl(oxido)-λ^4-sulfanylidene]-5-{[3-({[(3-methylphenyl)amino]carbonyl}amino)phenyl]ethynyl}nicotinamide], the results for the IC50 in assay [1], in assay [3] and in assay [2] were 19 nM, 11 nM and 8 nM, respectively.
Turning to `Cc1ccc(NC(=O)Nc2cccc(C#Cc3cncc(C(=O)N=S(C)(C)=O)c3)c2)cc1` [Example 11, N-[Dimethyl(oxido)-λ^4-sulfanylidene]-5-{[3-({[(4-methylphenyl)amino]carbonyl}amino)phenyl]ethynyl}nicotinamide], the IC50 in assay [1] was 19 nM; in assay [3], 15 nM; in assay [2], 6 nM.
Take `Cc1ccoc1C(=O)Nc1cccc(C#Cc2cncc(C(=O)N=S(=O)(CCCO)CCCO)c2)c1` [Example 14, N-[Bis(3-hydroxypropyl)(oxido)-λ^4-sulfanylidene]-5-({3-[(3-methyl-2-furoyl)amino]phenyl}ethynyl)nicotinamide]: the IC50 came out at 26 nM in assay [1] and 5 nM in assay [2].
In the case of `Cc1ccoc1C(=O)Nc1cccc(C#Cc2cc(C(=O)N=S(=O)(CCCO)CCCO)cnc2N)c1` [Example 15, 6-amino-N-[bis(3-hydroxypropyl)(oxido)-λ^4-sulfanylidene]-5-({3-[(3-methyl-2-furoyl)amino]phenyl}ethynyl)nicotinamide], the IC50 in assay [1] came out at 16 nM; in assay [2], 3 nM.
Turning to `O=C(N=S(=O)(CCCO)CCCO)c1cncc(C#Cc2cccc(NC(=O)c3ccc(Cl)c(C(F)(F)F)c3)c2)c1` [Example 16, N-[Bis(3-hydroxypropyl)(oxido)-λ^4-sulfanylidene]-5-[(3-{[4-chloro-3-(trifluoromethyl)benzoyl]amino}phenyl)ethynyl]nicotinamide], the IC50 in assay [2] turned out to be 3 nM.
Regarding `Cc1cccc(C(=O)Nc2cccc(C#Cc3cncc(C(=O)N=S(=O)(CCCO)CCCO)c3)c2)c1` [Example 17, N-[Bis(3-hydroxypropyl)(oxido)-λ^4-sulfanylidene]-5-({3-[(3-methylbenzoyl)amino]phenyl}ethynyl)nicotinamide], the IC50 in assay [1] came to 6 nM; in assay [2], 3 nM.
Take `O=C(N=S(=O)(CCCO)CCCO)c1cncc(C#Cc2cccc(NC(=O)c3cccc(C(F)(F)F)c3)c2)c1` [Example 18, N-[Bis(3-hydroxypropyl)(oxido)-λ^4-sulfanylidene]-5-[(3-{[3-(trifluoromethyl)benzoyl]amino}phenyl)ethynyl]nicotinamide]: the IC50 in assay [2] is 4 nM.
Regarding `O=C(N=S(=O)(CCCO)CCCO)c1cncc(C#Cc2cccc(NC(=O)c3ccc(F)c(Cl)c3)c2)c1` [Example 19, N-[Bis(3-hydroxypropyl)(oxido)-λ^4-sulfanylidene]-5-({3-[(3-chloro-4-fluorobenzoyl)amino]phenyl}ethynyl)nicotinamide], in assay [2], the concentration for half-maximal inhibition (IC50) was found to be 5 nM.
For `Cc1ccc(F)c(C(=O)Nc2cccc(C#Cc3cncc(C(=O)N=S(=O)(CCCO)CCCO)c3)c2)c1` [Example 20, N-[Bis(3-hydroxypropyl)(oxido)-λ^4-sulfanylidene]-5-({3-[(2-fluoro-5-methylbenzoyl)amino]phenyl}ethynyl)nicotinamide], the IC50 in assay [2] came to 9 nM.
As to `COc1cccc(C(=O)Nc2cccc(C#Cc3cc(C(=O)N=S(=O)(CCCO)CCCO)cnc3N)c2)c1` [Example 21, 6-Amino-N-[bis(3-hydroxypropyl)(oxido)-λ^4-sulfanylidene]-5-({3-[(3-methoxybenzoyl)amino]phenyl}ethynyl)nicotinamide], the IC50 in assay [2] was 5 nM.
Regarding `Cc1cccc(NC(=O)c2cccc(C#Cc3cc(C(=O)N=S(=O)(CCCO)CCCO)cnc3N)c2)c1` [Example 22, 6-Amino-N-[bis(3-hydroxypropyl)(oxido)-λ^4-sulfanylidene]-5-[(3-{[(3-methylphenyl)amino]carbonyl}phenyl)ethynyl]nicotinamide], the IC50 in assay [1] worked out at 8 nM; in assay [2], 3 nM.
For `Cc1ccoc1C(=O)Nc1cccc(C#Cc2cc(C(=O)N=S(C)(=O)CCCCC(=O)O)cnc2N)c1` (stereo not shown) [Example 24, 5-(N-{[6-amino-5-({3-[(3-methyl-2-furoyl)amino]phenyl}ethynyl)pyridin-3-yl]carbonyl}-S-methylsulfonimidoyl)pentanoic acid], the IC50 in assay [3] worked out at 46 nM; in assay [2], 5 nM.
With `COC(=O)CCCCS(C)(=O)=NC(=O)c1cnc(N)c(C#Cc2cccc(NC(=O)c3cc(C)ccc3F)c2)c1` (stereo not shown) [Example 25, Methyl 5-(N-{[6-amino-5-({3-[(2-fluoro-5-methylbenzoyl)amino]phenyl}ethynyl)pyridin-3-yl]carbonyl}-S-methylsulfonimidoyl)pentanoate], the values for the IC50 in assay [4], in assay [1] and in assay [2] were 27 nM, 45 nM and 8 nM, respectively.
Regarding `COC(=O)CCCCS(C)(=O)=NC(=O)c1cnc(N)c(C#Cc2cccc(C(=O)Nc3cc(C)ccc3F)c2)c1` (stereo not shown) [Example 35, Methyl 5-[N-({6-amino-5-[(3-{[(2-fluoro-5-methylphenyl)amino]carbonyl}phenyl)ethynyl]pyridin-3-yl}carbonyl)-S-methylsulfonimidoyl]pentanoate], the IC50 worked out at 43 nM in assay [4] and 17 nM in assay [2].
With “(R)—N-[(3-Hydroxypropyl)(methyl)oxido-λ^4-sulfanylidene]-5-({3-[(3-methyl-2-furoyl)amino]phenyl}ethynyl)nicotinamide [Example 40]”, the IC50 in assay [3] turned out to be 2 nM; in assay [2], 3 nM.
